PMC3527388, “Transport Mechanisms and Their Pathology-Induced Regulation Govern Tyrosine Kinase Inhibitor Delivery in Rheumatoid Arthritis” (PLoS ONE, 2012)

Molecular target: T1, novel organic cation transporter 1 (hOCTN1) (Homo sapiens, UniProt Q9H015)
T1 construct: gene SLC22A4
T1 sequence (Q9H015 1-551): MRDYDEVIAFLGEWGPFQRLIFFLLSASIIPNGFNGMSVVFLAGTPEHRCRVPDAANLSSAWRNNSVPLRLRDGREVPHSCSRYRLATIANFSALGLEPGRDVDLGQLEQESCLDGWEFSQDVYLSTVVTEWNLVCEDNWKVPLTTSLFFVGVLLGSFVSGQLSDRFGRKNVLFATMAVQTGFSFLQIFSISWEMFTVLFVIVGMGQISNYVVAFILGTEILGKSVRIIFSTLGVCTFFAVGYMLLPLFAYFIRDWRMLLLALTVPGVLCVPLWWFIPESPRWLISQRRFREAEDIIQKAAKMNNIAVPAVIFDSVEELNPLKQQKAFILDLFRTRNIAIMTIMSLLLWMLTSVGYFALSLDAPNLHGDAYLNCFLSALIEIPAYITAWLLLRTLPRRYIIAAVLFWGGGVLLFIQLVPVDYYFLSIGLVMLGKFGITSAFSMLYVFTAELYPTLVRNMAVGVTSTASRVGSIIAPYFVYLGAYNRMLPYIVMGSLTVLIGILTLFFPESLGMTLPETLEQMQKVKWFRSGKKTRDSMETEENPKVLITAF
Assay: ASP+ uptake in HEK293 cells with doxycycline-induced versus uninduced hOCTN1
Format: cell-based
From the text: ASP+ uptake in HEK293 cells with doxycycline-induced versus uninduced hOCTN1 on novel organic cation transporter 1 (hOCTN1) | ASP^+ is a substrate for hOCTN1. Comparison of ASP^+ uptake by HEK293 cells stably transfected

In the case of `CN(C)c1ccc(C=Cc2cc[n+](C)cc2)cc1` [ASP+, 4-(4-(Dimethylamino)Styryl)-N-methylpyridinium], the “ASP+ uptake in HEK293 cells with doxycycline-induced versus uninduced hOCTN1” value is reported as “ASP^+ is a substrate for hOCTN1. Comparison of ASP^+ uptake by HEK293 cells stably transfected”.
